Reference: US10351871B2, “Desaturases and methods of using them for synthesis of polyunsaturated fatty acids” (Washington State University, priority 1998, dated 2019)

Tests used:
Δ^5- and Δ^8-desaturases = assay: Yeast cell transformed with both Δ^5- and Δ^8-desaturase genes (pYFAT4 + pYX232-541) fed fatty acid substrates, GC; format: cell-based, Saccharomyces cerevisiae; details: for One added desaturation / Unconverted substrate: overnight culture at 28° C.; for Doubly desaturated product: products 20:5 (5, 8, 11, 14, 17), 20:4 (5, 8, 11, 14), 20:3 (5, 8, 11)
Excerpt: The cDNA portion of pJW541 (Wallis and Browse, Arch. Biochem. Biophys. 365:307-316, 1999) containing the Euglena Δ^8-desaturase was excised from that plasmid with the restriction enzymes EcoRI and SpeI. The purified DNA fragment representing the insert was ligated into the yeast expression vector pYX232 (R&D Systems, Inc.) that had been prepared by digestion with EcoRI and NheI, to give compatible sticky ends. (Plasmid pYX232 carries the marker conferring yeast prototrophy for tryptophan (TRP1 mutation), and uses the triose phosphate isomerase (TPI) promoter for constitutive expression of the inserted DNA.) The resulting plasmid, pYX232-541, was introduced into the Saccharomyces cerevisiae strain already harboring the Δ^5-desaturase (pYFAT4; Watts and Browse, Arch. Biochem. Biophys. 362:175-182, 1999) plasmid that confers yeast prototrophy for uracil using a lithium acetate transformation procedure (Invitrogen). Transformants were selected simultaneously for uracil and tryptophan prototrophy. Selected colonies arising after the transformation were inoculated into yeast minimal medium that also lacked both uracil and tryptophan.
For analysis of activity, separate cultures were supplemented with one of three fatty acid substrates provided as sodium salts as described (Wallis and Browse, Arch. Biochem. Biophys. 365:307-316, 1999). After overnight culture at 28° C., the cultures were harvested by centrifugation and washed. Fatty acid methyl esters were prepared using the standard methods described in Miguel and Browse J. Biol. Chem. 267:1502-1509, 1992.

[1] = target: T1, Euglena Δ^8-desaturase (EFD1) (Euglena gracilis, UniProt Q9SWQ9); format: cell-based; details: for desaturated share of the total incorporated 20-carbon fatty acid: S. cerevisiae with pYES2-541, 2% galactose, 0.2 mM fatty acid soap, overnight at 28° C.; for substrate preference over 20:1: EFD1 expressed in yeast; for desaturation of Δ^5 and Δ^6 substrates by EFD1 (in words): S. cerevisiae with pYES2-541, medium supplemented with the fatty acid
T1 construct: The resulting yeast expression construct containing the open reading frame under the control of a galactose-inducible promoter was designated pYES2-541; expressed in transfected cells; host or cells: Saccharomyces cerevisiae INVSc1, plasmid pYES2-541 (GAL1 promoter)
T1 sequence (Q9SWQ9 other isoform, or with tags, fused parts or gaps with the stated changes): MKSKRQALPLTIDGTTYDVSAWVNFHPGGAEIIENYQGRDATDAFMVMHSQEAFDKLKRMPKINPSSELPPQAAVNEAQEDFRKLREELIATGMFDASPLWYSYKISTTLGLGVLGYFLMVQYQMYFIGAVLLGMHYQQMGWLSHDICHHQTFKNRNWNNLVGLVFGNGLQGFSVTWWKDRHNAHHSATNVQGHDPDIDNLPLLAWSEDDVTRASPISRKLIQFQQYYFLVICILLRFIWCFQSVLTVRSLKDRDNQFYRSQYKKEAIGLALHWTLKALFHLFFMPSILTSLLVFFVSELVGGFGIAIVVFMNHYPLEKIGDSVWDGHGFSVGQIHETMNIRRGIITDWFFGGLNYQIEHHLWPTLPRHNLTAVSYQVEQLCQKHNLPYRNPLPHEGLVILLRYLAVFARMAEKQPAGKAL
Excerpt: For E. gracilis, the cloned Δ^8 gene was transferred to the yeast expression vector pYES2 (Invitrogen, Carlsbad, Calif.) by standard cloning techniques (Ausubel, Current Protocols In Molecular Biology, 1988) using enzymes obtained from New England Biolabs, Beverly, Mass. The resulting yeast expression construct containing the open reading frame under the control of a galactose-inducible promoter was designated pYES2-541.
Saccharomyces cerevisiae strain INVSc1 (Invitrogen) was transformed with pYES2-541 and cultured using standard methods (Ausubel, Current Protocols In Molecular Biology, 1988). Liquid medium containing 2% galactose was supplemented with fatty acid soaps (NuCheck Prep, Elysian Minn.) at a final concentration of 0.2 mM. Tergitol (1%, NP40) was added to the yeast cultures to enhance fatty acid uptake (Stukey et al., J. Biol. Chem. 264:16537-16544, 1989), except for cultures containing 20:1, where 5% DMSO was substituted. Yeast were incubated overnight at 28° C., harvested by centrifugation, washed once with 1% Tergitol, once with 0.5% Tergitol, and finally once with distilled water.
(§1) Extraction of lipids and preparation of fatty acid methyl esters was carried out by standard methods (Miguel and Browse, J. Biol. Chem. 267:1502-1509, 1992). Gas chromatography of the methyl esters was conducted by established methods (Spychalla et al., Proc. Natl. Acad. Sci. USA 94:1142-1147, 1997). Fatty acid 4,4-Dimethyloxazoline (DMOX) derivatives of yeast lipid extracts were prepared by standard methods (Fay and Richli, J. Chromatogr. 541:89-98, 1991). GC-mass spectrometry was conducted on a Hewlett-Packard 6890 series GC-MS fitted with a 30 m×[…] HPSMS column, operating at an ionization voltage of 70 eV with a scan range of 50-550 Da. Fatty acids and their derivatives were identified where possible by comparison with authentic standards (NuCheck Prep).
To confirm the activity of the enzyme, the EFD1 cDNA was transferred from pJW541 to yeast expression vector pYES2 under the control of a galactose-inducible promoter. The resulting construct, pYES2-541, was introduced into S. cerevisiae. […] Accordingly, yeast cultures were supplemented with various fatty acid soaps, using a yeast strain containing the empty vector as control, and analyzed the fatty acids of the cultures by methyl-ester derivatization and gas chromatography.

[2] = target: T2, C. elegans Δ^5-desaturase (FAT-4) (Caenorhabditis elegans, UniProt G5EG11); assay: C. elegans FAT-4 (pYES2, fat-4) expressed in yeast fed fatty acid substrates, GC analysis; format: cell-based; details: for activity of FAT-4 on substrate (in words): yeast expressing FAT-4, substrate fed; for substrate converted to desaturation product: yeast expressing FAT-4, 2% galactose, 0.2 mM fatty acid, 16 hours, 18:1 is endogenous; for amount desaturated relative to conventional substrate 20:3Δ^8,11,14: yeast expressing the C. elegans Δ^5-desaturase gene
T2 construct: The resulting peptide length was 447 amino acids instead of the previously predicted 454 amino acids; expressed in transfected cells; host or cells: Saccharomyces cerevisiae INVSc1, plasmid pYFAT4 (pYES2, GAL1 promoter)
T2 sequence (G5EG11 1-447): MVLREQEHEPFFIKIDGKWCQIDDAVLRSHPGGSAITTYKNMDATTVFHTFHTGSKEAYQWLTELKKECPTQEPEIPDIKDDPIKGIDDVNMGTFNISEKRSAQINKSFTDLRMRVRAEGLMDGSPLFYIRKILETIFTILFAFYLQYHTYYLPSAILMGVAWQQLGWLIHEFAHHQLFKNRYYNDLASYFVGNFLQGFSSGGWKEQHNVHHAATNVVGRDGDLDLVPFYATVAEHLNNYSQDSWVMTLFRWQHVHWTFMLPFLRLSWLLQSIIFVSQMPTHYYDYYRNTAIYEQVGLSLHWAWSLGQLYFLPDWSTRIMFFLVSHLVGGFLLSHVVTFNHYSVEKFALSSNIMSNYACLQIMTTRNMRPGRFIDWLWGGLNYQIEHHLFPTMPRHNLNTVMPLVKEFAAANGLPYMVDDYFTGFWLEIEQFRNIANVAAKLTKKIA
Description: To express the C. elegans Δ^5-desaturase, the fat-4 cDNA amplification product (see Example 3) was digested with HindIII and BamH1 and ligated to the yeast expression vector pYES2 (Invitrogen) cut with HindIII and BamH1. The resulting plasmid was named pYFAT4.
For the C. elegans Δ^5 gene, the constructs were transformed into Saccharomyces cerevisiae strain INVSc1 using the S.c. EasyComp transformation kit (Invitrogen). For experiments with the FAT-4 peptide, transformed yeast were grown overnight in uracil-deficient media containing 2% galactose, 0.2 mM fatty acid, and 1% NP-40.
as §1
To determine the enzymatic activity of the FAT-4 desaturase-like protein, the protein was expressed in Saccharomyces cerevisiae supplemented with polyunsaturated fatty acid substrates that are not normally present in this yeast. The FAT-4 protein was expressed in the yeast expression vector pYES2 from the GAL1 promoter by growing the cells in the presence of galactose and various fatty acids. After 16 hours of growth, the cells were analyzed for total fatty acid composition by gas chromatography (GC).

[3] = target: T3, C. elegans Δ^6-desaturase (FAT-3) (Caenorhabditis elegans, UniProt Q23221); assay: C. elegans FAT-3 expressed in yeast (pMK195, ADH promoter), substrate desaturation; format: cell-based; details: yeast expressing fat-3 from pMK195
T3 construct: Codons for amino acid residues 38-67 of W08D2.4 were not present in the cDNA; expressed in transfected cells; host or cells: yeast (Saccharomyces cerevisiae), vector pMK195, constitutive ADH promoter
T3 sequence (Q23221 1-443): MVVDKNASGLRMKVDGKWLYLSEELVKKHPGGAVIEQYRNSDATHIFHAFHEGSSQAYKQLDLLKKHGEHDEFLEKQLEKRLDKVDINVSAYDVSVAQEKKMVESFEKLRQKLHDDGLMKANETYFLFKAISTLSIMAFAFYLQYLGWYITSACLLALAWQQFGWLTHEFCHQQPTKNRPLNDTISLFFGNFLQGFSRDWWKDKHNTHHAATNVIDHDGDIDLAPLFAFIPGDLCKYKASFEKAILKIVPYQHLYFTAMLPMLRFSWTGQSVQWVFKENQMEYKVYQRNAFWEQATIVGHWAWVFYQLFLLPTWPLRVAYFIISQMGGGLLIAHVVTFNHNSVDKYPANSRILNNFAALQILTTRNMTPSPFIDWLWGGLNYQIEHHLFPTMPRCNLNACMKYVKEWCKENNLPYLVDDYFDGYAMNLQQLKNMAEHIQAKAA
Excerpt: The fat-3 gene was expressed in the yeast expression vector pMK195 containing the constitutive ADH promoter.

[4] = target: T4, Δ^5-desaturase activity in microsomal extracts of mammalian liver (Rattus norvegicus, UniProt Q920R3); details: labeled substrate; cited from earlier work
T4 construct: the rates of desaturation in microsomal extracts of mammalian liver; host or cells: microsomal extracts of mammalian liver
T4 sequence (Q920R3 whole entry, stated change not applied): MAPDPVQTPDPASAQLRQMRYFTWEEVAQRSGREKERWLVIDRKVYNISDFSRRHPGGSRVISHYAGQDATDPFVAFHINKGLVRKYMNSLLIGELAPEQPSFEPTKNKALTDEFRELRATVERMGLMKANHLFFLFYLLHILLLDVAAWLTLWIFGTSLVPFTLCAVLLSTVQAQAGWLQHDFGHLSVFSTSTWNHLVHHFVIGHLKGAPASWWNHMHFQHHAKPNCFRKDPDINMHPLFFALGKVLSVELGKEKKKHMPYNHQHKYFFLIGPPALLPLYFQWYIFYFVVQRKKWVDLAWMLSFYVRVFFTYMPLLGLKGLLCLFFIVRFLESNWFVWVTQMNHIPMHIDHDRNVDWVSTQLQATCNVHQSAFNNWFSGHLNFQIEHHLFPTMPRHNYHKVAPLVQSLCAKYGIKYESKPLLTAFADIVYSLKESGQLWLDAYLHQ

Δ^5-desaturase = target: T5, Δ^5-desaturase (Caenorhabditis elegans, UniProt G5EG11); assay: Arabidopsis plants doubly transformed with both desaturases, seed fatty acid methyl ester analysis; format: in vivo; details: seed from plants doubly transformed with both desaturases
T5 construct: expressed in transfected cells; host or cells: Arabidopsis plants (seed) doubly transformed with Δ8 and Δ5 constructs
T5 sequence (G5EG11 1-447): T2 sequence (G5EG11 1-447)
Excerpt: For example, the expression of the Δ^5- and Δ^8-desaturases in a plant, such as Arabidopsis, can be achieved by constructing a plant transformation vector to introduce the cDNA of each desaturase into the plant. The vector can contain a tissue specific promoter so that the desaturase protein will be expressed during seed development. Examples of seed specific promoters include that for phaseolin (van der Geest and Hall, Plant Mol. Biol. 32:579-88, 1996) or the promoter for napin (Stalberg et al., Plant Mol. Biol. 23: 671-83, 1993). Other seed-specific promoters that can be used are those located on the genomic BAC clone T24A18 (LOCUS ATT24A18. (1999) 45980 bp Arabidopsis thaliana DNA chromosome 4, ACCESSION # AL035680, NID g4490701) of the Arabidopsis genome. […] Transformation of Arabidopsis is readily achieved using the Agrobacterium-mediated vacuum infiltration process (Katavic et al., Mol. Gen. Genet. 245:363-70, 1994) or the floral dip modification of it (Clough and Bent, Plant J. 16:735-43, 1998), although several other methods are also commonly used. […] Since the Δ^8 and Δ^5 constructs use different selectable markers the double transformants are readily isolated. […] The seeds of transformed plants are analyzed by isolation of fatty acid methyl esters followed by gas chromatography to determine the fatty acid composition.

## CCCCCCCCC=CCCCCCCCCCC(=O)O [20:1Δ^11]
Δ^5- and Δ^8-desaturases
  One added desaturation: 18 mass percent of incorporated 20-carbon fatty acids
  Unconverted substrate: 72 mass percent of incorporated 20-carbon fatty acids
  Doubly desaturated product: 11 mass percent of incorporated 20-carbon fatty acids
[1]
  desaturated share of the total incorporated 20-carbon fatty acid: 32%
[2]
  activity of FAT-4 on substrate (in words): No novel peaks were detected
[3]
  activity of FAT-3 on substrate (in words): no activity

## CCCCCC=CCC=CCCCCCCCCCC(=O)O [20:2Δ^11,14]
Δ^5- and Δ^8-desaturases
  One added desaturation: 18 mass percent of incorporated 20-carbon fatty acids
  Unconverted substrate: 70 mass percent of incorporated 20-carbon fatty acids
  Doubly desaturated product: 13 mass percent of incorporated 20-carbon fatty acids
[1]
  substrate preference over 20:1: greater than two-fold preference
  desaturated share of the total incorporated 20-carbon fatty acid: 73%
[2]
  substrate converted to desaturation product: 27%
  amount desaturated relative to conventional substrate 20:3Δ^8,11,14: less than half
[4]
  rate of conversion to 20:3Δ^5,11,14 relative to rate of conversion of labeled 20:3Δ^8,11,14 to 20:4Δ^5,8,11,14: 41%
[3]
  activity of FAT-3 on substrate (in words): no activity

## CCC=CCC=CCC=CCCCCCCCCCC(=O)O [20:3Δ^11,14,17]
Δ^5- and Δ^8-desaturases
  One added desaturation: 17 mass percent of incorporated 20-carbon fatty acids
  Unconverted substrate: 71 mass percent of incorporated 20-carbon fatty acids
  Doubly desaturated product: 11 mass percent of incorporated 20-carbon fatty acids
[1]
  substrate preference over 20:1: greater than two-fold preference
  desaturated share of the total incorporated 20-carbon fatty acid: 70%
[2]
  substrate converted to desaturation product: 26%
  amount desaturated relative to conventional substrate 20:3Δ^8,11,14: less than half
[3]
  activity of FAT-3 on substrate (in words): no activity

## CCCCCCCCC=CCC=CCCCCCCC(=O)O [20:Δ^8,11]
Δ^5-desaturase
  conversion to 20:3Δ^5,8,11 in seed: convert

## CCCCC/C=C\C/C=C\C/C=C\CCCCCCC(=O)O [di-homo-γ-linolenic acid]
[2]
  substrate converted to desaturation product: 55%
[3]
  activity of FAT-3 on substrate (in words): no activity

## CCCCC/C=C\C/C=C\CCCCCCCC(=O)O [linoleic acid]
[1]
  desaturation of Δ^5 and Δ^6 substrates by EFD1 (in words): no desaturation occurred
[2]
  activity of FAT-4 on substrate (in words): no activity
[3]
  activity of FAT-3 on substrate (in words): able to desaturate

## CC/C=C\C/C=C\C/C=C\CCCCCCCC(=O)O [α-linolenic acid]
[1]
  desaturation of Δ^5 and Δ^6 substrates by EFD1 (in words): no desaturation occurred
[3]
  activity of FAT-3 on substrate (in words): capable of desaturating

## CCCCC/C=C\C/C=C\C/C=C\CCCCC(=O)O [γ-linolenic acid]
[2]
  activity of FAT-4 on substrate (in words): no activity
